Laboratory results as given in PubChem BioAssay (NCI).
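GI50 = concentration required for 50% inhibition of growth. The concentration for full growth arrest is given as TGI.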

Columns and labels:
Test in all cases: growth of human tumour cells (NCI), 384-well format
786-0 renal = system: 786-0 renal
A498 renal = system: A498 renal
A549 NSCLC = system: A549 NSCLC
ACHN renal = system: ACHN renal
CAKI-1 renal = system: CAKI-1 renal
CCRF-CEM leukemia = system: CCRF-CEM leukemia
COLO 205 colon = system: COLO 205 colon
DU-145 prostate = system: DU-145 prostate
EKVX NSCLC = system: EKVX NSCLC
HCC-2998 colon = system: HCC-2998 colon
HCT-116 colon = system: HCT-116 colon
HCT-15 colon = system: HCT-15 colon
HL-60(TB) leukemia = system: HL-60(TB) leukemia
HOP-62 NSCLC = system: HOP-62 NSCLC
HOP-92 NSCLC = system: HOP-92 NSCLC
HS 578T breast = system: HS 578T breast
HT29 colon = system: HT29 colon
IGROV1 ovarian = system: IGROV1 ovarian
K-562 leukemia = system: K-562 leukemia
KM12 colon = system: KM12 colon
LOX IMVI melanoma = system: LOX IMVI melanoma
M14 melanoma = system: M14 melanoma
MALME-3M melanoma = system: MALME-3M melanoma
MCF7 breast = system: MCF7 breast
MDA-MB-231 breast = system: MDA-MB-231 breast
MDA-MB-435 melanoma = system: MDA-MB-435 melanoma
MDA-MB-468 breast = system: MDA-MB-468 breast
MOLT-4 leukemia = system: MOLT-4 leukemia
NCI-H226 lung = system: NCI-H226 lung
NCI-H23 lung = system: NCI-H23 lung
NCI-H322M lung = system: NCI-H322M lung
NCI-H460 NSCLC = system: NCI-H460 NSCLC
NCI-H522 lung = system: NCI-H522 lung
NCI/ADR-RES ovarian = system: NCI/ADR-RES ovarian
OVCAR-3 ovarian = system: OVCAR-3 ovarian
OVCAR-4 ovarian = system: OVCAR-4 ovarian
OVCAR-5 ovarian = system: OVCAR-5 ovarian
OVCAR-8 ovarian = system: OVCAR-8 ovarian
PC-3 prostate = system: PC-3 prostate
RPMI-8226 leukemia = system: RPMI-8226 leukemia
RXF 393 renal = system: RXF 393 renal
SF-268 CNS = system: SF-268 CNS
SF-295 CNS = system: SF-295 CNS
SF-539 CNS = system: SF-539 CNS
SK-MEL-2 melanoma = system: SK-MEL-2 melanoma
SK-MEL-28 melanoma = system: SK-MEL-28 melanoma
SK-MEL-5 melanoma = system: SK-MEL-5 melanoma
SK-OV-3 ovarian = system: SK-OV-3 ovarian
SN12C renal = system: SN12C renal
SNB-19 CNS = system: SNB-19 CNS
SNB-75 CNS = system: SNB-75 CNS
SR leukemia = system: SR leukemia
SW-620 colon = system: SW-620 colon
T-47D breast = system: T-47D breast
TK-10 renal = system: TK-10 renal
U251 glioblastoma = system: U251 glioblastoma
UACC-62 melanoma = system: UACC-62 melanoma
UO-31 renal = system: UO-31 renal

With Cc1ccc(C(=O)N(CCCN)[C@@H](c2nc3cc(Cl)ccc3c(=O)n2Cc2ccccc2)C(C)C)cc1 the GI50 ([…]-0 renal) was < 0.01 µM, the TGI (786-0 renal) was 1.42 µM and the GI50 (A498 renal) was < 0.01 µM. The TGI (A498 renal) was 1.81 µM, the GI50 (A549 NSCLC) was < 0.01 µM and the TGI (A549 NSCLC) was 1.8 µM. For the same compound, the GI50 (ACHN renal) was 1.14 µM, the TGI (ACHN renal) was 2.37 µM and the GI50 (CAKI-1 renal) was < 0.01 µM. The TGI (CAKI-1 renal) was 1.92 µM, the GI50 (CCRF-CEM leukemia) was < 0.01 µM and the TGI (CCRF-CEM leukemia) was < 0.01 µM. For the same compound, the GI50 (COLO 205 colon) was < 0.01 µM, the TGI (COLO 205 colon) was < 0.01 µM and the GI50 (DU-145 prostate) was < 0.01 µM. For the same compound, the TGI (DU-145 prostate) was < 0.01 µM, the GI50 (EKVX NSCLC) was < 0.01 µM and the TGI (EKVX NSCLC) was 1.22 µM. The GI50 (HCC-2998 colon) was < 0.01 µM, the TGI (HCC-2998 colon) was 0.112 µM and the GI50 (HCT-116 colon) was < 0.01 µM. For the same compound, the TGI (HCT-116 colon) was 1.2 µM, the GI50 (HCT-15 colon) was < 0.01 µM and the TGI (HCT-15 colon) was 1.28 µM. The GI50 (HL-60(TB) leukemia) was < 0.01 µM, the TGI (HL-60(TB) leukemia) was < 0.01 µM and the GI50 (HOP-62 NSCLC) was < 0.01 µM. The TGI (HOP-62 NSCLC) was 1.95 µM, the GI50 (HOP-92 NSCLC) was < 0.01 µM and the TGI (HOP-92 NSCLC) was 1.7 µM. For the same compound, the GI50 (HS 578T breast) was < 0.01 µM, the TGI (HS 578T breast) was < 0.01 µM and the GI50 (HT29 colon) was < 0.01 µM. For the same compound, the TGI (HT29 colon) was 1 µM, the GI50 (IGROV1 ovarian) was 1.1 µM and the TGI (IGROV1 ovarian) was 2.32 µM. For the same compound, the GI50 (K-562 leukemia) was < 0.01 µM, the TGI (K-562 leukemia) was < 0.01 µM and the GI50 (KM12 colon) was < 0.01 µM. For the same compound, the TGI (KM12 colon) was 0.927 µM, the GI50 (LOX IMVI melanoma) was < 0.01 µM and the TGI (LOX IMVI melanoma) was 1.53 µM. For the same compound, the GI50 (M14 melanoma) was < 0.01 µM, the TGI (M14 melanoma) was < 0.01 µM and the GI50 (MALME-3M melanoma) was < 0.01 µM. For the same compound, the TGI (MALME-3M melanoma) was 1.89 µM, the GI50 (MCF7 breast) was < 0.01 µM and the TGI (MCF7 breast) was 1.27 µM. The GI50 (MDA-MB-231 breast) was < 0.01 µM, the TGI (MDA-MB-231 breast) was 1.78 µM and the GI50 (MDA-MB-435 melanoma) was < 0.01 µM. For the same compound, the TGI (MDA-MB-435 melanoma) was < 0.01 µM, the GI50 (MDA-MB-468 breast) was < 0.01 µM and the TGI (MDA-MB-468 breast) was < 0.01 µM. For the same compound, the GI50 (MOLT-4 leukemia) was < 0.01 µM, the TGI (MOLT-4 leukemia) was < 0.01 µM and the GI50 (NCI-H226 lung) was 1.12 µM. The TGI (NCI-H226 lung) was 2.34 µM, the GI50 (NCI-H23 lung) was < 0.01 µM and the TGI (NCI-H23 lung) was 1.08 µM. For the same compound, the GI50 (NCI-H322M lung) was < 0.01 µM, the TGI (NCI-H322M lung) was 1.73 µM and the GI50 (NCI-H460 NSCLC) was < 0.01 µM. For the same compound, the TGI (NCI-H460 NSCLC) was < 0.01 µM, the GI50 (NCI-H522 lung) was < 0.01 µM and the TGI (NCI-H522 lung) was < 0.01 µM. The GI50 (NCI/ADR-RES ovarian) was 0.109 µM, the TGI (NCI/ADR-RES ovarian) was 0.263 µM and the GI50 (OVCAR-3 ovarian) was < 0.01 µM. The TGI (OVCAR-3 ovarian) was < 0.01 µM, the GI50 (OVCAR-4 ovarian) was < 0.01 µM and the TGI (OVCAR-4 ovarian) was 1.89 µM. For the same compound, the GI50 (OVCAR-5 ovarian) was < 0.01 µM, the TGI (OVCAR-5 ovarian) was 1.25 µM and the GI50 (OVCAR-8 ovarian) was < 0.01 µM. For the same compound, the TGI (OVCAR-8 ovarian) was 1.2 µM, the GI50 (PC-3 prostate) was < 0.01 µM and the TGI (PC-3 prostate) was 1.62 µM. For the same compound, the GI50 (RPMI-8226 leukemia) was < 0.01 µM, the TGI (RPMI-8226 leukemia) was < 0.01 µM and the GI50 (RXF 393 renal) was < 0.01 µM. For the same compound, the TGI (RXF 393 renal) was < 0.01 µM, the GI50 (SF-268 CNS) was < 0.01 µM and the TGI (SF-268 CNS) was 1.65 µM. The GI50 (SF-295 CNS) was < 0.01 µM, the TGI (SF-295 CNS) was < 0.01 µM and the GI50 (SF-539 CNS) was < 0.01 µM. The TGI (SF-539 CNS) was 0.0202 µM, the GI50 (SK-MEL-2 melanoma) was < 0.01 µM and the TGI (SK-MEL-2 melanoma) was < 0.01 µM. The GI50 (SK-MEL-28 melanoma) was 1.35 µM, the TGI (SK-MEL-28 melanoma) was 2.64 µM and the GI50 (SK-MEL-5 melanoma) was < 0.01 µM. The TGI (SK-MEL-5 melanoma) was 0.0147 µM, the GI50 (SK-OV-3 ovarian) was < 0.01 µM and the TGI (SK-OV-3 ovarian) was 1.54 µM. The GI50 (SN12C renal) was < 0.01 µM, the TGI (SN12C renal) was 1.79 µM and the GI50 (SNB-19 CNS) was < 0.01 µM. For the same compound, the TGI (SNB-19 CNS) was 1.74 µM, the GI50 (SNB-75 CNS) was < 0.01 µM and the TGI (SNB-75 CNS) was 1.95 µM. For the same compound, the GI50 (SR leukemia) was < 0.01 µM, the TGI (SR leukemia) was < 0.01 µM and the GI50 (SW-620 colon) was < 0.01 µM. The TGI (SW-620 colon) was 1.06 µM, the GI50 (T-47D breast) was < 0.01 µM and the TGI (T-47D breast) was 1.3 µM. The GI50 (TK-10 renal) was 0.0949 µM, the TGI (TK-10 renal) was 2.07 µM and the GI50 (U251 glioblastoma) was < 0.01 µM. The TGI (U251 glioblastoma) was 1.43 µM, the GI50 (UACC-62 melanoma) was < 0.01 µM and the TGI (UACC-62 melanoma) was 1.4 µM. The GI50 (UO-31 renal) was 1.08 µM and the TGI (UO-31 renal) was 2.29 µM.
